This note sets out measurements from PubChem BioAssay (NCI).

SMILES strings stand for the structures.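 Assay format: 96-well plates, 48-hour exposure. GI50 marks 50% less growth. At the TGI there is no net growth.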

Test in all cases: NCI tumour cell line growth inhibition, 48 h
Assay [1] concerns CAKI-1 renal.
In assay [2] the test system is HS 578T breast.
For assay [3], the system named is MOLT-4 leukemia.
Assay [4] concerns OVCAR-4 ovarian.
Assay [5] deals with PC-3 prostate.
For assay [6], the system named is SF-295 CNS.
The subject of assay [7] is T-47D breast.

Regarding `COc1cc(C2C3=C(NC(=O)C2C#N)c2ccc4ccccc4c2OCC3)cc(OC)c1OC` (stereo unspecified), the TGI in assay [1] is 45.7 µM; in assay [2], 68.1 µM; in assay [3], greater than 100 µM; in assay [4], greater than 100 µM; in assay [5] it was greater than 100 µM; in assay [6], greater than 100 µM. Besides, in assay [7], the TGI came out at 62.5 µM.
`COc1cc(/C=C2\C(=O)N(c3ccc(Cl)cc3)C(c3ccccc3)S2(=O)=O)cc(OC)c1OC` (stereo unspecified): the TGI in assay [1], in assay [2], in assay [3], in assay [4], in assay [5] and in assay [6] was greater than 100 µM each time. The same molecule displayed a TGI in assay [7] greater than 100 µM.
Regarding `Cc1c(C)c2c(c(N)c1C#N)C(=O)N(NC(=S)Nc1ccccc1)C2=O`, the TGI in assay [1] was 88.1 µM; in assay [2], greater than 100 µM; in assay [3] it was greater than 100 µM; in assay [4], greater than 100 µM; in assay [5], greater than 100 µM; in assay [6] it was greater than 100 µM. Further, the TGI in assay [7] is greater than 100 µM.
With `Cc1cc(C)n(C(=CC(=O)C(Cl)Cl)n2nc(C)cc2C)n1`, the TGI was 19.1 µM in assay [1]; greater than 100 µM in assay [2]; 0.806 µM in assay [3]; greater than 100 µM in assay [4]; 29.5 µM in assay [5]; 31.7 µM in assay [6]. This molecule came in with a TGI in assay [7] of 28.6 µM.
For `O=C(Nc1nnc(-c2ccccc2)o1)C(SC(=S)N1CCCC1)c1ccccc1` (stereo unspecified), the TGI in assay [1], in assay [2], in assay [3], in assay [4], in assay [5] and in assay [6] was greater than 100 µM each time. This molecule also registered a TGI in assay [7] greater than 100 µM.
As for `CCOC(=O)/C=C(/OCC)[C@@H]1C(C(=O)c2ccc(Cl)cc2)[C@@H]1/C(=C\C(=O)OCC)OCC` (stereo partly specified), the TGI in assay [1] is greater than 100 µM; in assay [2] it was greater than 100 µM; in assay [3], greater than 24.4 µM; in assay [4] it was greater than 100 µM; in assay [5] it was greater than 100 µM; in assay [6] it was greater than 88.9 µM. Moreover, in assay [7], the TGI is greater than 100 µM.
`Cc1cc(C)nc(NS(=O)(=O)c2ccc(NC(=O)c3ccc4nc5ccccc5c(Nc5ccc(S(=O)(=O)N=C(N)N)cc5)c4c3)cc2)n1`: the TGI in assay [1], in assay [2], in assay [3], in assay [4], in assay [5] and in assay [6] was greater than 100 µM throughout. The same molecule returned a TGI in assay [7] greater than 100 µM.
Consider `N=C(N)c1ccc(N=Nc2c(O)c(C(=O)Nc3ccccc3)cc3ccccc23)cc1`, for which the TGI in assay [1] is greater than 100 µM; in assay [2] it was greater than 85.5 µM; in assay [3] it was 8.33 µM; in assay [4] it was 33.1 µM; in assay [5], greater than 89.2 µM; in assay [6], greater than 100 µM. This molecule registered a TGI in assay [7] of 38.2 µM.
On to `COc1ccc(C2CC(c3cccc(Nc4ccncc4)c3)=NN2c2ccccc2)cc1` (stereo unspecified), for which the GI50 in assay [1] was 1.66 µM; in assay [2] it was 1.82 µM; in assay [3], 2.07 µM; in assay [4], 1.79 µM; in assay [5] it was 1.68 µM; in assay [6] it was 1.8 µM. The GI50 in assay [7] is 2.3 µM. Besides, the TGI turned out to be 3.18 µM in assay [1]; 3.87 µM in assay [2]; 4.63 µM in assay [3]; 3.62 µM in assay [4]; 3.38 µM in assay [5]; 3.32 µM in assay [6]. This molecule also had a TGI in assay [7] of 5.83 µM.
Regarding `COc1ccc(Nc2nc(N)c(C(=O)c3ccco3)s2)cc1`, the TGI in assay [1] was greater than 100 µM; in assay [2], greater than 100 µM; in assay [3], greater than 55.7 µM; in assay [4] it was greater than 89.9 µM; in assay [5], greater than 100 µM; in assay [6] it was greater than 100 µM. The TGI in assay [7] was greater than 100 µM.
Take `Cc1cc(C)n(C(C)(C(=O)Cc2ccccc2)n2nc(C)cc2C)n1`: the TGI in assay [1], in assay [2], in assay [3], in assay [4], in assay [5] and in assay [6] was greater than 100 µM in each case. In assay [7], this molecule yielded a TGI greater than 100 µM.
For the molecule `NCC1OC(OC2C(N)CC(N)C(O)C2OC2OC(CO)C(O)C2O)C(N)C(O)C1O` (stereo unspecified), the TGI in assay [1], in assay [2], in assay [3], in assay [4], in assay [5] and in assay [6] was greater than 100 µM in each case. This molecule came in with a TGI in assay [7] greater than 100 µM.
For `CCOC(=O)CSc1nc(-c2ccc(Cl)cc2)c(C#N)c(=O)[nH]1`, the TGI in assay [1], in assay [2], in assay [3], in assay [4], in assay [5] and in assay [6] was greater than 100 µM throughout. For the same molecule, the TGI in assay [7] was greater than 100 µM.
With `CCOc1ccc(Nc2nc(N)nc(N)c2N=O)cc1`, the TGI is 38.5 µM in assay [1]; greater than 100 µM in assay [2]; 76.6 µM in assay [3]; greater than 100 µM in assay [4]; greater than 100 µM in assay [5]; greater than 100 µM in assay [6]. In assay [7], the TGI was greater than 100 µM.
Take `CN(C)c1ccc(/C=C2\N=C(c3ccccc3)N(c3nc4ccc(Sc5ccccc5)cc4[nH]3)C2=O)cc1`: the TGI in assay [1] was greater than 100 µM; in assay [2] it was greater than 100 µM; in assay [3], greater than 100 µM; in assay [4], greater than 100 µM; in assay [5] it was greater than 100 µM; in assay [6], 72.2 µM. This molecule yielded a TGI in assay [7] greater than 100 µM.
With `O=[N+]([O-])C(/C=C(\Cl)[N+](=O)[O-])=C(Nc1ccccc1)Nc1ccccc1`, the TGI was 26.8 µM in assay [1]; 27.7 µM in assay [2]; 6.12 µM in assay [3]; 20.6 µM in assay [4]; 28.8 µM in assay [5]; 31.6 µM in assay [6]. In assay [7], this molecule registered a TGI of 37.3 µM.
On to `Cc1c(-c2ccccc2)oc(=O)c2ccccc12`, for which the TGI in assay [1] stood at 53.9 µM; in assay [2], 43.1 µM; in assay [3], 60.1 µM; in assay [4], 71.4 µM; in assay [5], 72.1 µM; in assay [6], 40.2 µM. The TGI in assay [7] amounted to 75.7 µM.
